Test results published in ChEMBL document CHEMBL3352079, “Pyrimidine-based tricyclic molecules as potent and orally efficacious inhibitors of wee1 kinase” (ACS Med Chem Lett, 2015).
Activity calls are given as the source filed them. The calls are words filed in the database; no cut-off is given here.

How the values were obtained:
Wee1-like protein kinase [1] = target: T1, Wee1-like protein kinase (Homo sapiens, UniProt P30291); experiment: Inhibition of GST-tagged human Wee1
NCI-H1299 [2] = experiment: Cytotoxicity against human NCI-H1299 cells assessed as cell viability after 72 hrs by CellTiterGlo assay; assay type: functional, cell-based; settings: NCI-H1299, 72 h
Wee1-like protein kinase [3] = target: T1, Wee1-like protein kinase; experiment: Inhibition of human Weel1 in human NCI-H1299 cells assessed as phosphorylation of Cdk1 after overnight incubation by ELISA PD assay; assay type: cell-based
[4] = Half life in CD-1 mouse at 3 mg/kg, iv; assay type: ADME, organism-based; design: dose 3 mg/kg, route intravenous; settings: in vivo
[5] = Clearance in CD-1 mouse at 3 mg/kg, iv; assay type: ADME, organism-based; design: dose 3 mg/kg, route intravenous; settings: in vivo
[6] = AUC in CD-1 mouse at 10 mg/kg, po; assay type: ADME, organism-based; design: dose 10 mg/kg, route oral; settings: plasma
[7] = Oral bioavailability in CD-1 mouse at 10 mg/kg; assay type: ADME, organism-based; settings: in vivo
NCI-H1299 [8] = experiment: Antitumor activity against human NCI-H1299 cells xenografted in mouse assessed as tumor growth inhibition at 10 mg/kg, po qd from day 28 to 41 after tumor inoculation; assay type: functional; settings: NCI-H1299, 672 h, read-out: TGI
NCI-H1299 [9] = experiment: Antitumor activity against human NCI-H1299 cells xenografted in mouse assessed as tumor growth inhibition at 50 mg/kg, po qd from day 28 to 41 after tumor inoculation in presence of 10 mg/kg irinotecan; assay type: functional
NCI-H1299 [10] = experiment: Antitumor activity against human NCI-H1299 cells xenografted in mouse assessed as depletion of pY15 bands at 100 mg/kg, po after 6 hrs; assay type: functional, organism-based; design: dose 100 mg/kg
NCI-H1299 [11] = experiment: Antitumor activity against human NCI-H1299 cells xenografted in mouse assessed as depletion of pY15 bands at 100 mg/kg, po after 10 hrs; assay type: functional, organism-based; design: dose 100 mg/kg
NCI-H1299 [12] = experiment: Antitumor activity against human NCI-H1299 cells xenografted in mouse assessed as tumor growth inhibition at 50 mg/kg, po qd from day 28 to 41 after tumor inoculation; assay type: functional; settings: NCI-H1299, 672 h, read-out: TGI
NCI-H1299 [13] = experiment: Antitumor activity against human NCI-H1299 cells xenografted in mouse assessed as tumor growth delay at 50 mg/kg, po qd from day 28 to 41 after tumor inoculation in presence of 10 mg/kg irinotecan; assay type: functional
[14] = Plasma concentration in human NCI-H1299 cells xenografted in mouse at 100 mg/kg, po qd after 6 hrs; assay type: ADME, organism-based; design: dose 100 mg/kg, route oral
[15] = Plasma concentration in human NCI-H1299 cells xenografted in mouse at 100 mg/kg, po qd after 10 hrs; assay type: ADME, organism-based; design: dose 100 mg/kg, route oral
[16] = Drug uptake in human NCI-H1299 cells xenografted in mouse assessed in tumor at 100 mg/kg, po qd after 6 hrs; assay type: ADME, organism-based, Neoplasm; design: dose 100 mg/kg, route oral; settings: read-out: Drug uptake
[17] = Drug uptake in human NCI-H1299 cells xenografted in mouse assessed in tumor at 100 mg/kg, po qd after 10 hrs; assay type: ADME, organism-based, Neoplasm; design: dose 100 mg/kg, route oral; settings: read-out: Drug uptake
Mus musculus = experiment: In vivo inhibition of Wee1 in human NCI-H1299 cells xenografted in mouse assessed as pY15 CDK expression at 100 mg/kg, po qd after 6 to 10 hrs; assay type: functional, organism-based; design: dose 100 mg/kg

T1 sequence (P30291 whole entry): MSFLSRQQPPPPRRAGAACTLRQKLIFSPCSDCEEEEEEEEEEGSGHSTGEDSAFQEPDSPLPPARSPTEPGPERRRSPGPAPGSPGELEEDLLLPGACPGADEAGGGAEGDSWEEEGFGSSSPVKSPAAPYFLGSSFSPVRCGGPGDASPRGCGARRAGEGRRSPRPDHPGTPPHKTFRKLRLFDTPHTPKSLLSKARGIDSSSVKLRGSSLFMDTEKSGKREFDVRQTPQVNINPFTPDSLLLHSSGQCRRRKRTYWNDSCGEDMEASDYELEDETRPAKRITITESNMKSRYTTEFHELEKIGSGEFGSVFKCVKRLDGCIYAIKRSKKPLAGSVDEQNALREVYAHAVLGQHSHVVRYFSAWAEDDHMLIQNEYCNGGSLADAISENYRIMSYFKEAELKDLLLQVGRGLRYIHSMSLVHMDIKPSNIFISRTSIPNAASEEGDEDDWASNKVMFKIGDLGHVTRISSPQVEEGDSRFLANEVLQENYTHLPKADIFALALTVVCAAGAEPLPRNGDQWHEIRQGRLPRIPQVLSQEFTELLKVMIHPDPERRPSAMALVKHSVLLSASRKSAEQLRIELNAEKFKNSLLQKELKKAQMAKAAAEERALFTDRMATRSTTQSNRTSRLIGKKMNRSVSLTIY

SMILES | Ki (Wee1-like protein kinase [1]) [nM] | EC50 (Wee1-like protein kinase [3]) [nM] | half-life [4] [h] | clearance [5] [mL/min/kg] | AUC [6] [µM·h] | bioavailability [7] [%] | EC50 (NCI-H1299 [2]) [nM] | further results
CN1CCCc2cc(Nc3ncc4c(=O)n(-c5ccccc5Cl)c5nccn5c4n3)ccc21 | 7.4 | 2700 | – | – | – | – | 9300 | –
O=c1c2cnc(Nc3ccc(C4CCCCC4)cc3)nc2n2ccnc2n1-c1ccccc1Cl | 87 | 10000 | – | – | – | – | > 10000 | –
CN1CCN(c2cccc(Nc3ncc4c(=O)n(-c5ccccc5Cl)c5nccn5c4n3)c2)CC1 | 6.2 | 1500 | – | – | – | – | 6500 | –
CCc1c2c(nc3ccc(OC(=O)N4CCC(N5CCCCC5)CC4)cc13)-c1cc3c(c(=O)n1C2)COC(=O)[C@]3(O)CC [IRINOTECAN] | – | – | – | – | – | – | – | inhibition in vivo at 10 mg/kg (NCI-H1299 [8]): 67%; TGI (NCI-H1299 [9]): 83%
CC(=O)N1CCN(c2ccc(Nc3ncc4c(=O)n(-c5ccccc5Cl)c5nccn5c4n3)cc2)CC1 | 6.6 | 1100 | – | – | – | – | 3300 | –
O=c1c2cnc(NC3CCCCC3)nc2n2ccnc2n1-c1ccccc1Cl | > 3140 | – | – | – | – | – | – | –
CN1CCC(c2ccc(Nc3ncc4c(=O)n(-c5ccccc5Cl)c5nccn5c4n3)cc2)CC1 | 8.3 | 3100 | – | – | – | – | 9600 | –
O=c1c2cnc(Nc3ccccc3)nc2n2ccnc2n1-c1ccccc1Cl | 21 | 6800 | – | – | – | – | 5900 | –
CN1CCN(c2ccccc2Nc2ncc3c(=O)n(-c4ccccc4Cl)c4nccn4c3n2)CC1 | > 3140 | – | – | – | – | – | – | –
CN1CCN(c2ccc(Nc3ncc4c(=O)n(-c5c(F)cccc5Cl)c5nccn5c4n3)cc2)CC1 | – | – | – | – | – | – | 450 | –
O=c1c2cnc(Nc3ccc(N4CCCCC4)cc3)nc2n2ccnc2n1-c1ccccc1Cl | 5.5 | 3800 | – | – | – | – | 9800 | –
O=c1c2cnc(Nc3ccc4c(c3)CCCC4)nc2n2ccnc2n1-c1ccccc1Cl | 26 | 6000 | – | – | – | – | 7300 | –
CN1CCCc2ccc(Nc3ncc4c(=O)n(-c5ccccc5Cl)c5nccn5c4n3)cc21 | 8.6 | 2300 | – | – | – | – | > 10000 | –
CC(=O)N1Cc2cc(Nc3ncc4c(=O)n(-c5ccccc5Cl)c5nccn5c4n3)ccc2C2(CC2)C1 | 5.4 | 620 | – | – | – | – | 2000 | –

Now from value to molecule, other results behind:

Ki (Wee1-like protein kinase [1]) [nM] | EC50 (Wee1-like protein kinase [3]) [nM] | half-life [4] [h] | clearance [5] [mL/min/kg] | AUC [6] [µM·h] | bioavailability [7] [%] | SMILES | EC50 (NCI-H1299 [2]) [nM] | further results
< 1 | 29 | 2.6 | 18.3 | 12 | 68 | CN1Cc2cc(Nc3ncc4c(=O)n(-c5c(F)cccc5Cl)c5nccn5c4n3)ccc2C2(CC2)C1 | 210 | –
< 1 | 98 | 2.8 | 23.3 | 12.3 | 80 | CN1Cc2cc(Nc3ncc4c(=O)n(-c5ccccc5Cl)c5nccn5c4n3)ccc2C(C)(C)C1 | 550 | –
< 1 | 87 | 1.7 | 33.3 | 6.5 | 55 | CN1CCN(c2ccc(Nc3ncc4c(=O)n(-c5c(Cl)cccc5Cl)c5nccn5c4n3)cc2)CC1 | 190 | –
1.2 | 100 | 2.3 | 25 | 9.8 | 70 | CN1Cc2cc(Nc3ncc4c(=O)n(-c5ccccc5Cl)c5nccn5c4n3)ccc2C2(CC2)C1 | 690 | –
< 1 | 60 | 2.8 | 9.17 | 24 | 94 | CN1Cc2cc(Nc3ncc4c(=O)n(-c5c(F)cccc5Cl)c5nccn5c4n3)ccc2C(C)(C)C1 | 310 | inhibition (NCI-H1299 [10]): Active; inhibition (NCI-H1299 [11]): Active; inhibition in vivo at 50 mg/kg (NCI-H1299 [12]): 43%; TGI (NCI-H1299 [9]): 83%; Activity (NCI-H1299 [13]): 25%; concentration at 6 h [14]: 20 µM; concentration at 10 h [15]: 13.7 µM; concentration at 6 h [16]: 47.1 µM; concentration at 10 h [17]: 53.4 µM; inhibition (Mus musculus): Active
< 1 | < 13 | 3.9 | 16.2 | 9.8 | 49 | CN1Cc2cc(Nc3ncc4c(=O)n(-c5c(Cl)cccc5Cl)c5nccn5c4n3)ccc2C(C)(C)C1 | 230 | –
< 1 | 27 | – | – | – | – | CN1Cc2cc(Nc3ncc4c(=O)n(-c5c(Cl)cccc5Cl)c5nccn5c4n3)ccc2C2(CC2)C1 | 220 | –
1.6 | 220 | 1.5 | 36.7 | 5.2 | 52 | CN1CCc2ccc(Nc3ncc4c(=O)n(-c5ccccc5Cl)c5nccn5c4n3)cc2C1 | 770 | –
2.3 | 370 | 1.9 | 30 | 8.4 | 72 | CN1CCN(c2ccc(Nc3ncc4c(=O)n(-c5ccccc5Cl)c5nccn5c4n3)cc2)CC1 | 1000 | –
